The values below come from patent US20240051985A1, “METTL3 MODULATORS” (ACCENT THERAPEUTICS, INC., priority 2020, published 2024).

One test has as its target METTL3/METTL14 (Homo sapiens, UniProt Q86U44). Kind of test: METTL3-14 standard enzyme assay (3H-SAM flashplate). To be noted: METTL3 biochemical assay. Summed up:
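Radiometric methyltransferase read-out: after quenching with excess unlabelled SAM (15 μM), biotinylated RNA was captured on streptavidin flashplates (2 h, 25° C) and counted. Reactions contained 2.5 nM enzyme (5 min preincubation), 100 nM RNA and 100 nM 3H-SAM, ran 30 min in HEPES pH 7.5 buffer with KCl, MgCl2, DTT.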

The next test deals with PRMT5-MEP50 (Homo sapiens, UniProt O14744). Kind of test: PRMT5 assay (3H-SAM flashplate). To be noted: PRMT5 biochemical assay. Summed up:
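Radiometric methyl-transfer read-out: 3H-methyl transferred to a 3′-biotinylated, acetylated H4 peptide substrate (100 nM) from 3H-SAM (250 nM), captured on streptavidin scintillation plates. Enzyme complex 2.5 nM, pH 8.0 Tris buffer with DTT and Tween, compound preincubation 5 min, 60 min reaction stopped with excess unlabeled SAM.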

For a further test, the target named is T1, FLT3 (Homo sapiens, UniProt P36888).
T1 sequence (P36888 27-993): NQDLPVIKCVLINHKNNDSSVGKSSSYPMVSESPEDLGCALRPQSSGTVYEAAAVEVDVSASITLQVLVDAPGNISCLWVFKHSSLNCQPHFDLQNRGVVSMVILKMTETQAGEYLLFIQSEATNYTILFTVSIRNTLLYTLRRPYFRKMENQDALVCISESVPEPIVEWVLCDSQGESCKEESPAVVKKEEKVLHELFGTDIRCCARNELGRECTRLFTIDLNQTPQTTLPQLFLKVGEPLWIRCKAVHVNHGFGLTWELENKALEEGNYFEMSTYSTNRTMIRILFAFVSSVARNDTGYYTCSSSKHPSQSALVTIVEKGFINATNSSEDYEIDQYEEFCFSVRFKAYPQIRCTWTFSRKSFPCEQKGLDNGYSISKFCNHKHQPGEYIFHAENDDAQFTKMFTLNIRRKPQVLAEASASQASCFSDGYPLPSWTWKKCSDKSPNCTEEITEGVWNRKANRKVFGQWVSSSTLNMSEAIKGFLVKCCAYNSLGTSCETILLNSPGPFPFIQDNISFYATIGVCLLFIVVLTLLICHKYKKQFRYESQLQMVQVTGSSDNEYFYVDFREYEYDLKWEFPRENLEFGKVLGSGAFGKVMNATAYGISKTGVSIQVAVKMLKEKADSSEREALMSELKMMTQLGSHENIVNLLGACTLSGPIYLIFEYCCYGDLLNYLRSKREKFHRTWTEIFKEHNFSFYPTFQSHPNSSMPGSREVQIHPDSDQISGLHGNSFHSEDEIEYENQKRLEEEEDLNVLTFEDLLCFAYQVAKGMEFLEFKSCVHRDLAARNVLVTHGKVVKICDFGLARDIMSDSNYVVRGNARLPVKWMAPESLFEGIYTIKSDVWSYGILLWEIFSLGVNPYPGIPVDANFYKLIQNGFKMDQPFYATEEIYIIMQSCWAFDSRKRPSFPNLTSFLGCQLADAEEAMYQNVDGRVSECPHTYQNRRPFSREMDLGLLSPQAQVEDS
Kind of test: FLT3 LanthaScreen assay. In kind it is biochemical. To be noted: Table 4. The protocol:
(§1) FLT3/FLT3-ITD LanthaScreen Assays
(§2) Assays were performed in a 10 μl-volume in 384-well polypropylene microplates (Perkin Elmer Proxiplate, cat. No. 6059480) at ambient temperature. Optimized 1× assay buffer was 50 mM Hepes pH 7.5, 2 mM DTT, 0.01% Tween, 0.01% BSA, 10 mM MgCl2. For compound screening FLT3 (final concentration, f.c.=[…]) or FLT3-ITD (f.c.=[…]) was added using a Multidrop Combi (ThermoFisher Scientific, Waltham, MA) and preincubated for 10 min. Reactions were started by adding fluorescein-poly GT (f.c.=200 nM) and ATP (f.c.=57 μM) substrates. Reactions proceeded for 40 minutes. The reactions were stopped with a detection mixture of EDTA (f.c.=20 mM) and terbium-conjugated anti-phoso tyrosine antibody pY20 (f.c.=2 nM). The plates were sealed and read on an Envision (PerkinElmer, Waltham, MA) using 340 nm excitation and emission reads at 495 and 520 nM.
In general terms: In TR-FRET formats the signal depends on donor and acceptor labels being close together.

In the next test the target is T2, FLT3-ITD (Homo sapiens, UniProt P36888).
T2 sequence (P36888 1-993): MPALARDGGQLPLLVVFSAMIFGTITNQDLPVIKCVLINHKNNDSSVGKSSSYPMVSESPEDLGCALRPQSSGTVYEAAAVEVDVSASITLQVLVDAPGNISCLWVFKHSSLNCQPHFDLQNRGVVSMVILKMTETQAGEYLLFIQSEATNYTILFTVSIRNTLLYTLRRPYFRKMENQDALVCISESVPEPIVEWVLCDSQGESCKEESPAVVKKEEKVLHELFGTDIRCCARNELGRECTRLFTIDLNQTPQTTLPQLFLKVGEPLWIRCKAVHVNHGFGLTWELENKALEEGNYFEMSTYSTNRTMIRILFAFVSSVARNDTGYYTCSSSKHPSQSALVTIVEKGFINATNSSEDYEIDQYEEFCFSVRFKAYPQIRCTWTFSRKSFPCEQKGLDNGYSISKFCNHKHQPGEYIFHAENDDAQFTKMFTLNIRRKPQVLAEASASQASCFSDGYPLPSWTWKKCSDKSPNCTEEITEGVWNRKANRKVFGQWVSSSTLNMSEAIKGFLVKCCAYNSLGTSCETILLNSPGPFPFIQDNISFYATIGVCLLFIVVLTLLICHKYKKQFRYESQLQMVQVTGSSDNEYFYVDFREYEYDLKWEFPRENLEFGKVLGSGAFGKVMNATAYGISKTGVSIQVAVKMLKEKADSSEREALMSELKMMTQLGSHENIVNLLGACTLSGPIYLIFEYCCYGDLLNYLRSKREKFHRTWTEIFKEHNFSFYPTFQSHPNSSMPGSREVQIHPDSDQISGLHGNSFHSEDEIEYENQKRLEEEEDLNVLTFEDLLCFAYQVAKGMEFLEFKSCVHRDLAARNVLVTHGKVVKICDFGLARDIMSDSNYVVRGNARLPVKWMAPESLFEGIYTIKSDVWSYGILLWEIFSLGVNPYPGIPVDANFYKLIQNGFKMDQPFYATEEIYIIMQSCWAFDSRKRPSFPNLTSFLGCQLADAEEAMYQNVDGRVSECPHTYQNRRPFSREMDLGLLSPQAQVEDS
Kind of test: FLT3-ITD LanthaScreen assay. The format is biochemical. The settings on record: Table 4. The protocol:
as §1, §2

Chain of PRMT5-MEP50 (O14744 whole entry): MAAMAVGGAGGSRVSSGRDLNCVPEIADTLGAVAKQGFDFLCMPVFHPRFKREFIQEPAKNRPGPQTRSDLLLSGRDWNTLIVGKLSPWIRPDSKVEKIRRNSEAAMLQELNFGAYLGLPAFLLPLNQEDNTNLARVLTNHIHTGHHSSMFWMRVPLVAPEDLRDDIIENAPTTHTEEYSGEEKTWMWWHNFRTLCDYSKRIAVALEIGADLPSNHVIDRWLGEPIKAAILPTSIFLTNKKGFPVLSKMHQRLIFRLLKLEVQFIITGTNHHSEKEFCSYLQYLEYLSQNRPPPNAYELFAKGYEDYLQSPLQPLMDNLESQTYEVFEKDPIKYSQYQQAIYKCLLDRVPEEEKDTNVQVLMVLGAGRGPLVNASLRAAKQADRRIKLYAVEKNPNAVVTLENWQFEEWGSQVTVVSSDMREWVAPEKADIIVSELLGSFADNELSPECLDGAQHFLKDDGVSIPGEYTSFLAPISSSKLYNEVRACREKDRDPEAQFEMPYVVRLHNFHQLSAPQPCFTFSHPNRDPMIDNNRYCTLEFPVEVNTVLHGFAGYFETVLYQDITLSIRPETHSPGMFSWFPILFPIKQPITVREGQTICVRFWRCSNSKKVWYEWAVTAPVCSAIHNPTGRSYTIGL
Chain of PRMT5-MEP50 (Q9BQA1 whole entry partner): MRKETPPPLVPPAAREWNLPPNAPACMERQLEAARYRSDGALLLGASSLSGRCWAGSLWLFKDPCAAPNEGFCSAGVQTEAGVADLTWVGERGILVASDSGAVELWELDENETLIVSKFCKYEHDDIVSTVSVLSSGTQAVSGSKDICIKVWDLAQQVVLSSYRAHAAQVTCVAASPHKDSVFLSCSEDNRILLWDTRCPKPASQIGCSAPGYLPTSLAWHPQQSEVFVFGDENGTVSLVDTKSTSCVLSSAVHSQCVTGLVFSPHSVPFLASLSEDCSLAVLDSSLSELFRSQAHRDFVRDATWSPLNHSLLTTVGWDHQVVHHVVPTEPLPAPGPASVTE
Chain of METTL3/METTL14 (Q86U44 whole entry, species assumed): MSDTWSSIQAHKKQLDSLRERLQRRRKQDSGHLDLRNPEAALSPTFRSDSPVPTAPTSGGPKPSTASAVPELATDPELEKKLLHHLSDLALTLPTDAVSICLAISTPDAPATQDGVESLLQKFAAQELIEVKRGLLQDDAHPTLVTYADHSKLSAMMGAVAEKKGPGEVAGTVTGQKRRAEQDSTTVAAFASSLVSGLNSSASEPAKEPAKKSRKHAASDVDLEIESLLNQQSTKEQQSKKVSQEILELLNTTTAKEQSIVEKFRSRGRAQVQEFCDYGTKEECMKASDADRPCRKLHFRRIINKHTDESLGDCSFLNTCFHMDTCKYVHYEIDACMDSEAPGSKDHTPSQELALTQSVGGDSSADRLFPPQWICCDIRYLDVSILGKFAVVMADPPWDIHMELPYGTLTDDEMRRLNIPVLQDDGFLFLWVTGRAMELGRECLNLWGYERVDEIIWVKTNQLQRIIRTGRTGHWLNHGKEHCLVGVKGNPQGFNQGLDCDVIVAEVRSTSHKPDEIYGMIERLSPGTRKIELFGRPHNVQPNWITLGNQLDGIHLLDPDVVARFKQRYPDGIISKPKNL
Chain of METTL3/METTL14 (Q9HCE5 whole entry partner, species assumed): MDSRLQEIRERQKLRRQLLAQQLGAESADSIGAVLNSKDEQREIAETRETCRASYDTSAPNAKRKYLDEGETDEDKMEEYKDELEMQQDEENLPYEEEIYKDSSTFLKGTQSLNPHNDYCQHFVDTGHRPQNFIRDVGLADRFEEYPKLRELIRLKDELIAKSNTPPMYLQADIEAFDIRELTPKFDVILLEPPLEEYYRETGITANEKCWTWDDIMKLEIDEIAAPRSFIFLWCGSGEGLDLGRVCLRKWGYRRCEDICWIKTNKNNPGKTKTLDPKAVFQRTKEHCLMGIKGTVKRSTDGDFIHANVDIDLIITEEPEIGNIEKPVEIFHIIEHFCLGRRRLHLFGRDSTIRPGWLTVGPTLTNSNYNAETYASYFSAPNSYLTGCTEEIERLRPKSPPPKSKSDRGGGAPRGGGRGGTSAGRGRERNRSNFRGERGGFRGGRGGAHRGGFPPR

As a reminder, the IC50 is the concentration at which inhibition is half-maximal. A higher IC50 goes with weaker potency. With `Cn1ccc(-c2cn([C@@H]3O[C@H](C(=O)N4CCCC(NS(C)(=O)=O)C4)[C@@H](O)[C@H]3O)c3ncnc(N)c23)n1` (stereo in doubt) [Compound I-185], the IC50 is ≥ 1000 nM on METTL3/METTL14 (Table 4), 100 to 1000 nM at PRMT5-MEP50 (Table 4), ≥ 1000 nM at FLT3 and ≥ 1000 nM at FLT3-ITD.

In the case of `CC1CC(NC(=O)[C@H]2O[C@@H](n3cc(-c4ccn(C)n4)c4c(N)ncnc43)[C@H](O)[C@@H]2O)CCN1` (stereo in doubt) [Compound I-211], the IC50 on METTL3/METTL14 (Table 4) was 100 to 1000 nM; at PRMT5-MEP50 (Table 4), 100 to 1000 nM; against FLT3, ≥ 1000 nM; at FLT3-ITD, ≥ 1000 nM.

Take `CC1CC(NC(=O)[C@H]2O[C@@H](n3cc(-c4ccn(C)n4)c4c(N)ncnc43)[C@H](O)[C@@H]2O)CCN1` (stereo in doubt) [Compound I-212]: the IC50 is 100 to 1000 nM against METTL3/METTL14 (Table 4), 100 to 1000 nM at PRMT5-MEP50 (Table 4), ≥ 1000 nM on FLT3 and ≥ 1000 nM on FLT3-ITD.

In the case of `CC1CC(NC(=O)[C@H]2O[C@@H](n3cc(-c4ccn(C)n4)c4c(N)ncnc43)[C@H](O)[C@@H]2O)CCN1C` (stereo in doubt) [Compound I-231], the IC50 against METTL3/METTL14 (Table 4) was 100 to 1000 nM; against PRMT5-MEP50 (Table 4) it was 100 to 1000 nM; at FLT3, ≥ 1000 nM; against FLT3-ITD it was ≥ 1000 nM.

With `CN1CCC(N(CC[C@H](N)C(=O)O)C(=O)[C@H]2O[C@@H](n3cc(-c4ccn(C)n4)c4c(N)ncnc43)[C@H](O)[C@@H]2O)CC1` [Compound I-31, (S)-2-amino-4-((2S,3S,4R,5R)-5-(4-amino-5-(1-methyl-1H-pyrazol-3-yl)-7H-pyrrolo[2,3-d]pyrimidin-7-yl)-3,4-dihydroxy-N-(1-methylpiperidin-4-yl)tetrahydrofuran-2-carboxamido)butanoic acid], the half-inhibitory concentration (IC50) was < 10 nM at METTL3/METTL14 (Table 3), < 10 nM against PRMT5-MEP50 (Table 3), ≥ 1000 nM against FLT3 and ≥ 1000 nM against FLT3-ITD.

As to `CNc1ccc2ccc(NC(=O)[C@H]3O[C@@H](n4cc(-c5ccn(C)n5)c5c(N)ncnc54)C[C@@H]3O)cc2n1` [Compound I-35], the IC50 against METTL3/METTL14 (Table 4) is < 10 nM; at PRMT5-MEP50 (Table 4), 10 to 100 nM; against FLT3, ≥ 1000 nM; against FLT3-ITD, ≥ 1000 nM.

Turning to `COC(=O)[C@@H](N)CCNC(=O)[C@H]1O[C@@H](n2cc(-c3ccn(C)n3)c3c(N)ncnc32)[C@H](O)[C@@H]1O` [Compound I-42, methyl (2S)-2-amino-4-{[(2S,3S,4R,5R)-5-[4-amino-5-(1-methyl-1H-pyrazol-3-yl)-7H-pyrrolo[2,3-d]pyrimidin-7-yl]-3,4-dihydroxyoxolan-2-yl]formamido}butanoate], the half-inhibitory concentration (IC50) was ≥ 1000 nM against METTL3/METTL14 (Table 4), 100 to 1000 nM at PRMT5-MEP50 (Table 4), ≥ 1000 nM at FLT3 and ≥ 1000 nM against FLT3-ITD.

Consider `Cn1ccc(-c2cn([C@@H]3O[C@H](C(=O)NCC[C@H](N)C(=O)O)[C@@H](O)[C@H]3O)c3ncnc(N)c23)n1` [Compound I-43], for which the IC50 on METTL3/METTL14 (Table 4) is 100 to 1000 nM; at PRMT5-MEP50 (Table 4), ≥ 1000 nM; against FLT3, ≥ 1000 nM; against FLT3-ITD, ≥ 1000 nM.

As to `CN1CCC(NC(=O)[C@H]2C[C@@H](n3cc(-c4ccn(C)n4)c4c(N)ncnc43)[C@H](O)[C@@H]2O)CC1` [Compound I-44, (1S,2R,3S,4R)-4-[4-amino-5-(1-methyl-1H-pyrazol-3-yl)-7H-pyrrolo[2,3-d]pyrimidin-7-yl]-2,3-dihydroxy-N-(1-methylpiperidin-4-yl)cyclopentane-1-carboxamide], the IC50 at METTL3/METTL14 (Table 4) was 100 to 1000 nM; at PRMT5-MEP50 (Table 4), 10 to 100 nM; at FLT3, ≥ 1000 nM; against FLT3-ITD, ≥ 1000 nM.

For the compound `Cn1ccc(-c2cn([C@@H]3O[C@H](C(=O)NC[C@H]4CC[C@@H](O)CC4)[C@@H](O)[C@H]3O)c3ncnc(N)c23)n1` [Compound I-45, (2S,3S,4R,5R)-5-[4-amino-5-(1-methyl-1H-pyrazol-3-yl)-7H-pyrrolo[2,3-d]pyrimidin-7-yl]-3,4-dihydroxy-N-{[(1s,4s)-4-hydroxycyclohexyl]methyl}oxolane-2-carboxamide], the half-maximal inhibitory concentration (IC50) against METTL3/METTL14 (Table 4), against PRMT5-MEP50 (Table 4), against FLT3 and against FLT3-ITD was ≥ 1000 nM each time.

In the case of `CN1CCC[C@@H](NC(=O)[C@H]2O[C@@H](n3cc(-c4ccn(C)n4)c4c(N)ncnc43)[C@H](O)[C@@H]2O)C1` [Compound I-46, (2S,3S,4R,5R)-5-[4-amino-5-(1-methyl-1H-pyrazol-3-yl)-7H-pyrrolo[2,3-d]pyrimidin-7-yl]-3,4-dihydroxy-N-[(3R)-1-methylpiperidin-3-yl]oxolane-2-carboxamide], the IC50 against METTL3/METTL14 (Table 4) was ≥ 1000 nM; against PRMT5-MEP50 (Table 4), 10 to 100 nM; at FLT3, ≥ 1000 nM; at FLT3-ITD, ≥ 1000 nM.

Turning to `CN1CCC(NC(=O)[C@H]2O[C@@H](n3cc(C4CCCO4)c4c(N)ncnc43)[C@H](O)[C@@H]2O)CC1` (stereo partly drawn) [Compound I-53, (2S,3S,4R,5R)-5-[4-amino-5-(oxolan-2-yl)-7H-pyrrolo[2,3-d]pyrimidin-7-yl]-3,4-dihydroxy-N-(1-methylpiperidin-4-yl)oxolane-2-carboxamide], the half-inhibitory concentration (IC50) against METTL3/METTL14 (Table 4) is 100 to 1000 nM; on PRMT5-MEP50 (Table 4) it was 100 to 1000 nM; against FLT3 it was ≥ 1000 nM; on FLT3-ITD it was ≥ 1000 nM.

As to `Cn1ccc(-c2cn([C@@H]3O[C@H](C(N)=O)[C@@H](O)[C@H]3O)c3ncnc(N)c23)n1` [Compound I-54], the IC50 against METTL3/METTL14 (Table 4) is ≥ 1000 nM; against PRMT5-MEP50 (Table 4), 100 to 1000 nM; against FLT3, ≥ 1000 nM; on FLT3-ITD, ≥ 1000 nM.
